Test results reported in patent US9776995B2, “Bicyclic sulfonamide compounds as sodium channel inhibitors” (AMGEN INC., priority 2013, dated 2017).

Each compound was assayed against Nav 1.7 (Homo sapiens (Human), UniProt Q15858) (assay: Nav 1.7 in vitro PX assay (PatchXpress whole cell voltage clamp)). Settings: HEK 293 cells stably transfected with human Nav1.7; PatchXpress; partially inactivated state.
Assay type: cell-based
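Further: holding potential set for 20 to 50% inactivation, sodium current evoked by a 20 ms step to −10 mV, peak current inhibition read after compound exposure, 3–5 cells per concentration.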

Chain of Nav 1.7 (Q15858 whole entry): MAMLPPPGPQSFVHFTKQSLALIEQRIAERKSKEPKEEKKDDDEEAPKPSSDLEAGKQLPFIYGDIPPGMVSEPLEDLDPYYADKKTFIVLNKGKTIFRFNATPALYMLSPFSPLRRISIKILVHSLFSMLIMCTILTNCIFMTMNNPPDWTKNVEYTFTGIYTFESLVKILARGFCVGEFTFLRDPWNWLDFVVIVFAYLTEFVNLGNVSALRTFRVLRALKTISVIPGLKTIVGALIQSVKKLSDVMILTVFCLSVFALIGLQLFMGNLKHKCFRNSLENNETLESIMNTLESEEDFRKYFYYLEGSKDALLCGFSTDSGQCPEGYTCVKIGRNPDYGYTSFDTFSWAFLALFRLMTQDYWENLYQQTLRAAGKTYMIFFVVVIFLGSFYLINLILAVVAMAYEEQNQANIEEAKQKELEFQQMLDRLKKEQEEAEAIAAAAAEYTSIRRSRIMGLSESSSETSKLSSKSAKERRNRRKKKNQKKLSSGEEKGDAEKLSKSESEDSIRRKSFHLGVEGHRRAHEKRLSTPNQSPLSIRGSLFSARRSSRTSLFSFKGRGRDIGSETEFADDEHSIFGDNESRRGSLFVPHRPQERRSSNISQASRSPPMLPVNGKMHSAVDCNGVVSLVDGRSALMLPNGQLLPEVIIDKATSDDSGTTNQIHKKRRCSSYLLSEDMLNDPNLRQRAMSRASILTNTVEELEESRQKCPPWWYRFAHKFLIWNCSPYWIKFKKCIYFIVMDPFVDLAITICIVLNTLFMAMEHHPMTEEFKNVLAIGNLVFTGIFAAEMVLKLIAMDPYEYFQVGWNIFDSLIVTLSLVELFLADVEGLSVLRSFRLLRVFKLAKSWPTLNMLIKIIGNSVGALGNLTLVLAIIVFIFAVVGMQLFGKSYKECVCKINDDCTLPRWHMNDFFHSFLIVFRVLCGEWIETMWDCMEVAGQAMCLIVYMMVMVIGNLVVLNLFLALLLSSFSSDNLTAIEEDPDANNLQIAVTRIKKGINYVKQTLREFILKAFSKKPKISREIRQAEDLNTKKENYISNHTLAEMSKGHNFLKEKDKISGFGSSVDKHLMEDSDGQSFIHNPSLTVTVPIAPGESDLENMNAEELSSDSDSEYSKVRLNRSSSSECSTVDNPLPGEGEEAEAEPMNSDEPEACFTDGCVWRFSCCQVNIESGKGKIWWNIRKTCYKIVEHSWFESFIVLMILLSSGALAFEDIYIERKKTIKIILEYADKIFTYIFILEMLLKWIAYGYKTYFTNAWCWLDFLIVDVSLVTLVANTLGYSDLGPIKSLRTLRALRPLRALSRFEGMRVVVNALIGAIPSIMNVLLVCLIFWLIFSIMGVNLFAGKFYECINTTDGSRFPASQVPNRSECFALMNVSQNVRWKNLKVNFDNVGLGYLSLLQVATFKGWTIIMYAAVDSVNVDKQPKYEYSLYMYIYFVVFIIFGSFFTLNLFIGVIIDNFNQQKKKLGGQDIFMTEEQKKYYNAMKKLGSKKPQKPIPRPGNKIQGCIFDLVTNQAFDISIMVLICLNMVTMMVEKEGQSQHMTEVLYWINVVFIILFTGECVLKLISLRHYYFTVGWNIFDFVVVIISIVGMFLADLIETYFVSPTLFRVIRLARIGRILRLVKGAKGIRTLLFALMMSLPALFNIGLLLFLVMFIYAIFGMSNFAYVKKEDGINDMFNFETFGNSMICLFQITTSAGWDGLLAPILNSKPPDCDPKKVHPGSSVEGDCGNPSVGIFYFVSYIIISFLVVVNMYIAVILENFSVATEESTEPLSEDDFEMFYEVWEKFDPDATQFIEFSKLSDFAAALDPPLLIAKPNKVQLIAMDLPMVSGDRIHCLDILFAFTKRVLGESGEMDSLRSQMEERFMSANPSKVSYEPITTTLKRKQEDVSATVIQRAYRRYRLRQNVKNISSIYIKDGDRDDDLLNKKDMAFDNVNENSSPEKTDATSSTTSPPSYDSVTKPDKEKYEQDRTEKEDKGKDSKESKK

IC50	Compound
65 nM	COc1cc(-c2cccc(Cl)c2)c(C)cc1-c1ncnc2cc(S(=O)(=O)Nc3ncccn3)ccc12 [Example 440, 4-(3′-CHLORO-5-METHOXY-2-METHYL-[1,1′-BIPHENYL]-4-YL)-N-(PYRIMIDIN-2-YL)QUINAZOLINE-7-SULFONAMIDE]
94 nM	COc1cc(-c2cc(F)cc(F)c2)c(C)cc1-c1ncnc2cc(S(=O)(=O)Nc3ncccn3)ccc12 [Example 438, 4-(3′,5′-DIFLUORO-5-METHOXY-2-METHYL-[1,1′-BIPHENYL]-4-YL)-N-(PYRIMIDIN-2-YL)QUINAZOLINE-7-SULFONAMIDE]
105 nM	COc1cc(-c2ccc(F)cc2F)c(C)cc1-c1ncnc2cc(S(=O)(=O)Nc3ccon3)ccc12 [Example 563, 4-(2′,4′-difluoro-5-methoxy-2-methyl-4-biphenylyl)-N-3-isoxazolyl-7-quinazolinesulfonamide]
1250 nM	COc1cc(-c2cccc(C(F)(F)F)c2)c(F)cc1-c1c2ccc(S(=O)(=O)Nc3ccon3)cc2cc(=O)n1C (atropisomer, axis not shown; (M)) [Example 552, (M)-1-(2-fluoro-5-methoxy-3′-(trifluoromethyl)-4-biphenylyl)-N-3-isoxazolyl-2-methyl-3-oxo-2,3-dihydro-6-isoquinolinesulfonamide]
57 nM	COc1cc(-c2cc(OC)c(-c3ncnc4cc(S(=O)(=O)Nc5ccon5)ccc34)cc2C)ccc1F [Example 559, 4-(4′-fluoro-3′,5-dimethoxy-2-methyl-4-biphenylyl)-N-3-isoxazolyl-7-quinazolinesulfonamide]
533 nM	COc1cc(-c2cccc(F)c2)ccc1-c1c(=O)n(C)cc2cc(S(=O)(=O)Nc3ccon3)ccc12 [Example 589, 4-(3′-fluoro-3-methoxy-4-biphenylyl)-N-3-isoxazolyl-2-methyl-3-oxo-2,3-dihydro-7-isoquinolinesulfonamide]
72 nM	COc1cc(-c2cccc(F)c2)c(Cl)cc1-c1c(C)ncc2cc(S(=O)(=O)Nc3ccon3)ccc12 (atropisomer, axis not shown; (M)) [Example 317, (M)-4-(2-chloro-3′-fluoro-5-methoxy-4-biphenylyl)-N-3-isoxazolyl-3-methyl-7-isoquinolinesulfonamide]

Compound	IC50
CCc1cnc2cc(S(=O)(=O)Nc3ccon3)ccc2c1-c1cc(Cl)c(-c2cccc(F)c2)cc1OC (atropisomer, axis not shown; (P)) [Example 333, (P)-4-(2-chloro-3′-fluoro-5-methoxy-[1,1′-biphenyl]-4-yl)-3-ethyl-N-(isoxazol-3-yl)quinoline-7-sulfonamide]	591 nM
COc1cc(-c2cccc(F)c2)c(Cl)cc1-c1c(C#N)cnc2cc(S(=O)(=O)Nc3ccon3)ccc12 (atropisomer, axis not shown; (M)) [Example 334, (M)-4-(2-chloro-3′-fluoro-5-methoxy-[1,1′-biphenyl]-4-yl)-3-cyano-N-(isoxazol-3-yl)quinoline-7-sulfonamide]	101 nM
COc1cc(-c2cccc(F)c2)c(Cl)cc1-c1cn(C)c(=O)c2cc(S(=O)(=O)Nc3ccon3)ccc12 [Example 328, 4-(2-chloro-3′-fluoro-5-methoxy-[1,1′-biphenyl]-4-yl)-N-(isoxazol-3-yl)-2-methyl-1-oxo-1,2-dihydroisoquinoline-7-sulfonamide trifluoromethanesulfonate]	68 nM
CCc1cnc2cc(S(=O)(=O)Nc3ccon3)ccc2c1-c1cc(Cl)c(-c2cccc(F)c2)cc1OC (atropisomer, axis not shown; (M)) [Example 332, (M)-4-(2-chloro-3′-fluoro-5-methoxy-[1,1′-biphenyl]-4-yl)-3-ethyl-N-(isoxazol-3-yl)quinoline-7-sulfonamide]	33700 nM
COc1cc(-c2cccc(F)c2)c(Cl)cc1-c1c(OC)cnc2cc(S(=O)(=O)Nc3ccon3)ccc12 (atropisomer, axis not shown; (M)) [Example 339, (M)-4-(2-chloro-3′-fluoro-5-methoxy-[1,1′-biphenyl]-4-yl)-N-(isoxazol-3-yl)-3-methoxyquinoline-7-sulfonamide]	630 nM

Same assay, conditions: PatchXpress (PX)

IC50	Compound
28.7 nM	COc1cc(-c2ccc(C)c(Cl)c2)c(C)cc1-c1ncnc2cc(S(=O)(=O)Nc3ccon3)ccc12 [Example 267, 4-(3′-chloro-5-methoxy-2,4′-dimethyl-4-biphenylyl)-N-3-isoxazolyl-7-quinazolinesulfonamide]
37.6 nM	COc1cc(-c2ccc(F)c(F)c2)c(C)cc1-c1nccc2cc(S(=O)(=O)Nc3ccon3)ccc12 [Example 62, 1-(3′,4′-DIFLUORO-5-METHOXY-2-METHYL-[1,1′-BIPHENYL]-4-YL)-N-(ISOXAZOL-3-YL)ISOQUINOLINE-6-SULFONAMIDE]
25.2 nM	COc1cc(-c2ccc(F)c(Cl)c2)c(C)cc1-c1ncnc2cc(S(=O)(=O)Nc3ccon3)ccc12 [Example 269, 4-(3′-chloro-4′-fluoro-5-methoxy-2-methyl-4-biphenylyl)-N-3-isoxazolyl-7-quinazolinesulfonamide]
102 nM	COc1cc(-c2cccc(C)c2)c(C)cc1-c1ncnc2cc(S(=O)(=O)Nc3ccon3)ccc12 [Example 263, N-3-isoxazolyl-4-(5-methoxy-2,3′-dimethyl-4-biphenylyl)-7-quinazolinesulfonamide]
17.2 nM	COc1cc(-c2ccc(C)c(Cl)c2)c(Cl)cc1-c1nncc2cc(S(=O)(=O)Nc3ccon3)ccc12 [Example 246, 1-(2,3′-dichloro-5-methoxy-4′-methyl-4-biphenylyl)-N-3-isoxazolyl-6-phthalazinesulfonamide]

Compound	IC50
COc1cn(-c2cc(F)cc(F)c2)c(=O)cc1-c1nccc2cc(S(=O)(=O)Nc3ccon3)ccc12 [Example 56, 1-(1-(3,5-DIFLUOROPHENYL)-5-METHOXY-2-OXO-1,2-DIHYDROPYRIDIN-4-YL)-N-(ISOXAZOL-3-YL)ISOQUINOLINE-6-SULFONAMIDE]	11800 nM

Same assay, conditions: in-vitro Nav 1.7 PX (PatchXpress)

IC50	Compound
12900 nM	COc1cc(-c2cccc(F)c2)c(Cl)cc1-c1cn(C)c2cc(S(=O)(=O)Nc3ccon3)ccc12 [Example 57, 3-(2-CHLORO-3′-FLUORO-5-METHOXY-[1,1′-BIPHENYL]-4-YL)-N-(ISOXAZOL-3-YL)-1-METHYL-1H-INDOLE-6-SULFONAMIDE]
256 nM	COc1cc(-c2cccc(F)c2)c(C#N)cc1-c1cccc2cc(S(=O)(=O)Nc3ccon3)ccc12 [Example 292, 5-(2-cyano-3′-fluoro-5-methoxy-4-biphenylyl)-N-3-isoxazolyl-2-naphthalenesulfonamide]
60.3 nM	COc1ccc(F)cc1-c1cc(OC)c(-c2nccc3cc(S(=O)(=O)Nc4ccon4)ccc23)cc1C [Example 280, 1-(5′-fluoro-2′,5-dimethoxy-2-methyl-4-biphenylyl)-N-3-isoxazolyl-6-isoquinolinesulfonamide]
256 nM	COc1cc(-c2cccc(F)c2)c(Cl)cc1-c1nccc2cc(S(=O)(=O)Nc3ncc(F)cn3)ccc12 [Example 294, 1-(2-chloro-3′-fluoro-5-methoxy-4-biphenylyl)-N-(5-fluoro-2-pyrimidinyl)-6-isoquinolinesulfonamide]
34 nM	COc1cc(-c2ccc(F)c(C3CC3)c2)c(C)cc1-c1ncnc2cc(S(=O)(=O)Nc3ccon3)ccc12 [Example 63, 4-(3′-CYCLOPROPYL-4′-FLUORO-5-METHOXY-2-METHYL-[1,1′-BIPHENYL]-4-YL)-N-(ISOXAZOL-3-YL)QUINAZOLINE-7-SULFONAMIDE]
